The values below come from patent US9096565B2, “Inhibitors of histone deacetylase” (MethylGene Inc., priority 2007, dated 2015).

The assay has as its target one or more of HDAC-4, HDAC-5, HDAC-6, HDAC-7, HDAC-8, HDAC-9, HDAC-10 and HDAC-11. In words: Inhibition of histone deacetylase enzymatic activity (summary statement over isoforms). The assay is classed as biochemical. Particulars: Table 3, selected examples; HDAC isoform not given. The method, boiled down:
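Activity was measured as deacetylation of the fluorogenic substrate Boc-Lys(trifluoroacetyl)-AMC over 20-30 min at 37 °C, after a 5 min room-temperature preincubation of enzyme with compound. Trypsin (1 mg/mL) with a reference HDAC inhibitor ended the reaction.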

Usually IC50 stands for the concentration needed to halve the response being measured. A high value points to a need for much substance. `O=C(NO)C(c1ccccc1)c1ccc(-c2ccc3c(c2)CCO3)cc1` (centres unmarked) [Compound 2-113, 2-(4-(2,3-dihydrobenzofuran-5-yl)phenyl)-N-hydroxy-2-phenylacetamide] gave an IC50 of less than 1000 nM.

`O=C(NO)C(c1ccccc1)N1CCC(N2CCOCC2)CC1` (centres unmarked) [Compound 2-42, N-hydroxy-2-(4-morpholinopiperidin-1-yl)-2-phenylacetamide] gave a concentration for half-maximal inhibition (IC50) of 1000 to 15000 nM.

`Cc1cc(C(=O)Nc2cccc(C(C(=O)NO)c3ccccc3)c2)c(C)o1` (centres unmarked) [Compound 2-64, N-(3-(2-(hydroxyamino)-2-oxo-1-phenylethyl)phenyl)-2,5-dimethylfuran-3-carboxamide]: the IC50 is 1000 to 15000 nM.

The molecule `O=C(NO)C(c1ccccc1)c1ccc(-n2ccnc2)cc1` (centres unmarked) [Compound 5-88, 2-(4-(1H-imidazol-1-yl)phenyl)-N-hydroxy-2-phenylacetamide] returned an IC50 of less than 1000 nM.

Molecule `O=C(NO)C(c1ccccc1)c1ccc(OCC2CCCCC2)cc1` (centres unmarked) [Compound 3-57, 2-(4-(cyclohexylmethoxy)phenyl)-N-hydroxy-2-phenylacetamide] returned an IC50 of less than 1000 nM.

In turn, `O=C(NO)C(c1ccccc1)N1CCN(c2ncccn2)CC1` (centres unmarked) [Compound 1-36, N-hydroxy-2-phenyl-2-(4-(pyrimidin-2-yl)piperazin-1-yl)acetamide] displayed a half-inhibitory concentration (IC50) of less than 1000 nM.

`O=C(Cc1ccccc1)Nc1cccc(C(C(=O)NO)c2ccccc2)c1` (centres unmarked) [Compound 2-60, N-hydroxy-2-phenyl-2-(3-(2-phenylacetamido)phenyl)acetamide] displayed an IC50 of less than 1000 nM.

`O=C(NO)C(c1ccccc1)N1CCN(C(=O)Cc2ccccc2)CC1` (centres unmarked) [Compound 2-28, N-hydroxy-2-phenyl-2-(4-(2-phenylacetyl)piperazin-1-yl)acetamide] displayed an IC50 of 1000 to 15000 nM.

Regarding `O=C(NO)C(c1ccccc1)c1cccnc1` (centres unmarked) [Compound 5-15, N-hydroxy-2-phenyl-2-(pyridin-3-yl)acetamide], the IC50 is less than 1000 nM.

Molecule `O=C(NO)C(c1ccccc1)c1nc2cc(Cl)c(F)cc2[nH]1` (centres unmarked) [Compound 1-25, 2-(5-chloro-6-fluoro-1H-benzo[d]imidazol-2-yl)-N-hydroxy-2-phenylacetamide] had an IC50 of 1000 to 15000 nM.

`O=C(NO)C(c1ccccc1)c1ccc(N2CCN(c3cccc(C(F)(F)F)c3)CC2)cc1` (centres unmarked) [Compound 5-67, N-hydroxy-2-phenyl-2-(4-(4-(3-(trifluoromethyl)phenyl)piperazin-1-yl)phenyl)acetamide] returned an IC50 of less than 1000 nM.

Regarding `O=C(NO)C(c1ccccc1)N1CCN(c2ccc(C(F)(F)F)cn2)CC1` (centres unmarked) [Compound 5-48, N-hydroxy-2-phenyl-2-(4-(5-(trifluoromethyl)pyridin-2-yl)piperazin-1-yl)acetamide], the IC50 is less than 1000 nM.

As to `O=C(NO)C(c1ccc(N2CCOCC2)cc1)c1cccc(C(F)(F)F)c1` (centres unmarked) [Compound 6-21, N-hydroxy-2-(4-morpholinophenyl)-2-(3-(trifluoromethyl)phenyl)acetamide], the IC50 was in the range of 1000 to 15000 nM.

`O=C(NO)C1(c2ccc(F)cc2)CCCC1` [Compound 5-120, 1-(4-fluorophenyl)-N-hydroxycyclopentanecarboxamide] came in with an IC50 of 1000 to 15000 nM.

For `O=C(NO)C(Sc1cccc(O)c1)c1ccccc1` (centres unmarked) [Compound 6-38, N-hydroxy-2-(3-hydroxyphenylthio)-2-phenylacetamide], the IC50 was in the range of 1000 to 15000 nM.

`CC(C)CCOc1ccc(C(C(=O)NO)c2ccccc2)cc1` (centres unmarked) [Compound 3-54, N-hydroxy-2-(4-(isopentyloxy)phenyl)-2-phenylacetamide] displayed an IC50 of 1000 to 15000 nM.

`O=C(NO)C(c1ccccc1)c1ccc(OC/C=C/c2ccccc2)cc1` (centres unmarked) [Compound 3-85, (E)-2-(4-(cinnamyloxy)phenyl)-N-hydroxy-2-phenylacetamide]: the IC50 was less than 1000 nM.

`O=C(NO)C(c1ccccc1)c1ccc(N2CCN(c3ccccn3)CC2)cc1` (centres unmarked) [Compound 5-66, N-hydroxy-2-phenyl-2-(4-(4-(pyridin-2-yl)piperazin-1-yl)phenyl)acetamide] yielded an IC50 of less than 1000 nM.

In turn, `O=C(Nc1cccc(C(C(=O)NO)c2ccccc2)c1)c1ccc2c(c1)OCO2` (centres unmarked) [Compound 2-76, N-(3-(2-(hydroxyamino)-2-oxo-1-phenylethyl)phenyl)benzo[d][1,3]dioxole-5-carboxamide] came in with an IC50 of less than 1000 nM.

The molecule `CC(C)(C)c1ccc(OC(C(=O)NO)c2ccccc2)cc1` (centres unmarked) [Compound 7-37, 2-(4-tert-butylphenoxy)-N-hydroxy-2-phenylacetamide] showed an IC50 of 1000 to 15000 nM.

`Cc1ccc(C(C(=O)NO)c2ccc(N3CCOCC3)cc2)cc1` (centres unmarked) [Compound 5-115, N-hydroxy-2-(4-morpholinophenyl)-2-p-tolylacetamide] yielded an IC50 of 1000 to 15000 nM.

Consider `COc1ccccc1C(C(=O)NO)c1ccc(N2CCOCC2)cc1` (centres unmarked) [Compound 5-129, N-hydroxy-2-(2-methoxyphenyl)-2-(4-morpholinophenyl)acetamide], for which the IC50 was 1000 to 15000 nM.

The molecule `CC(C)CCOc1cccc(C(C(=O)NO)c2ccccc2)c1` (centres unmarked) [Compound 3-30, N-hydroxy-2-(3-(isopentyloxy)phenyl)-2-phenylacetamide] showed an IC50 of 1000 to 15000 nM.

The molecule `COc1cccc(CNc2ccc(C(C(=O)NO)c3ccccc3)cc2)c1` (centres unmarked) [Compound 2-84, N-hydroxy-2-(4-(3-methoxybenzylamino)phenyl)-2-phenylacetamide] registered an IC50 of less than 1000 nM.

`O=C(NO)C(c1ccccc1)C1CCCCC1` (centres unmarked) [Compound 1-10, 2-cyclohexyl-N-hydroxy-2-phenylacetamide] returned an IC50 of less than 1000 nM.

Molecule `COc1ccc(C(C(=O)NO)c2ccccc2)cc1` (centres unmarked) [Compound 3-43, N-hydroxy-2-(4-methoxyphenyl)-2-phenylacetamide] returned an IC50 of less than 1000 nM.

Molecule `O=C(NO)C(c1ccccc1)N1CCC(c2noc3ccc(F)cc23)CC1` (centres unmarked) [Compound 5-18, 2-(4-(5-fluorobenzo[d]isoxazol-3-yl)piperidin-1-yl)-N-hydroxy-2-phenylacetamide] yielded an IC50 of less than 1000 nM.

For the molecule `O=C(NO)C(c1ccccc1)N1CCC(Oc2ccccc2)CC1` (centres unmarked) [Compound 1-43, N-hydroxy-2-(4-phenoxypiperidin-1-yl)-2-phenylacetamide], the IC50 is less than 1000 nM.

As for `O=C(NO)C(c1ccccc1)c1ccc(C#Cc2ccccc2)cc1` (centres unmarked) [Compound 2-97, N-hydroxy-2-phenyl-2-(4-(phenylethynyl)phenyl)acetamide], the concentration for half-maximal inhibition (IC50) is less than 1000 nM.

`COc1ccc(S(=O)(=O)Nc2cccc(C(C(=O)NO)c3ccccc3)c2)cc1` (centres unmarked) [Compound 2-91, N-hydroxy-2-(3-(4-methoxyphenylsulfonamido)phenyl)-2-phenylacetamide] gave a half-maximal inhibitory concentration (IC50) of 1000 to 15000 nM.

For `O=C(NO)C(c1ccccc1)c1cccc(OCc2ccccc2F)c1` (centres unmarked) [Compound 3-34, 2-(3-(2-fluorobenzyloxy)phenyl)-N-hydroxy-2-phenylacetamide], the IC50 is less than 1000 nM.

Molecule `O=C(NO)C(Sc1ccc2ccccc2c1)c1ccccc1` (centres unmarked) [Compound 5-28, N-hydroxy-2-(naphthalen-2-ylthio)-2-phenylacetamide] displayed an IC50 of less than 1000 nM.

`O=C(NO)C(Oc1ccc(-c2ccccc2)cc1)c1ccccc1` (centres unmarked) [Compound 5-14, 2-(biphenyl-4-yloxy)-N-hydroxy-2-phenylacetamide] came in with an IC50 of 1000 to 15000 nM.

In the case of `O=C(COc1ccccc1)Nc1cccc(C(C(=O)NO)c2ccccc2)c1` (centres unmarked) [Compound 2-68, N-hydroxy-2-(3-(2-phenoxyacetamido)phenyl)-2-phenylacetamide], the IC50 is less than 1000 nM.

`O=C(NO)C(c1ccccc1)N1CCOCC1` (centres unmarked) [Compound 5-113b, N-hydroxy-2-morpholino-2-phenylacetamide] yielded an IC50 of 1000 to 15000 nM.

As to `CC(C)Oc1ccc(C(C(=O)NO)c2ccccc2)cc1` (centres unmarked) [Compound 3-47, N-hydroxy-2-(4-isopropoxyphenyl)-2-phenylacetamide], the IC50 was less than 1000 nM.

Take `O=C(NO)C(c1ccccc1)N1CCN(C(=O)OCc2ccccc2)CC1` (centres unmarked) [Compound 5-61, benzyl 4-(2-(hydroxyamino)-2-oxo-1-phenylethyl)piperazine-1-carboxylate]: the IC50 was in the range of 1000 to 15000 nM.

Regarding `O=C(NO)C(c1ccccc1)c1nnc(COc2ccccc2)s1` (centres unmarked) [Compound 5-53, N-hydroxy-2-(5-(phenoxymethyl)-1,3,4-thiadiazol-2-yl)-2-phenylacetamide], the IC50 was less than 1000 nM.

As for `CCCc1cccc(C(C(=O)NO)c2ccccc2)c1` (centres unmarked) [Compound 2-101, N-hydroxy-2-phenyl-2-(3-propylphenyl)acetamide], the IC50 is less than 1000 nM.

For `O=C(NO)C(Oc1ccc2c(c1)CCCC2)c1ccccc1` (centres unmarked) [Compound 7-36, N-hydroxy-2-phenyl-2-(5,6,7,8-tetrahydronaphthalen-2-yloxy)acetamide], the IC50 was in the range of 1000 to 15000 nM.

In the case of `O=C(NO)C(c1ccc(N2CCOCC2)cc1)c1cccc(F)c1F` (centres unmarked) [Compound 6-22], the concentration for half-maximal inhibition (IC50) is less than 1000 nM.

In the case of `O=C(NO)C(c1cccs1)c1cccs1` [Compound 1-23, N-hydroxy-2,2-di(thiophen-2-yl)acetamide], the IC50 lay within 1000 to 15000 nM.

As to `O=C(NO)C(c1ccccc1)c1ccc(NS(=O)(=O)c2cccs2)cc1` (centres unmarked) [Compound 2-90, N-hydroxy-2-phenyl-2-(4-(thiophene-2-sulfonamido)phenyl)acetamide], the concentration for half-maximal inhibition (IC50) was less than 1000 nM.

In the case of `O=C(NO)C(c1ccccc1)N1C[C@@H]2C[C@H]1CO2` (stereo partly drawn) [Compound 5-71, 2-((1S,4S)-2-oxa-5-azabicyclo[2.2.1]heptan-5-yl)-N-hydroxy-2-phenylacetamide], the IC50 lay in the range of 1000 to 15000 nM.

For the molecule `Cc1occc1SC(C(=O)NO)c1ccccc1` (centres unmarked) [Compound 2-46, N-hydroxy-2-(2-methylfuran-3-ylthio)-2-phenylacetamide], the IC50 lay within 1000 to 15000 nM.

Consider `O=C(NO)C(c1ccccc1)c1ccc(-c2ccc(F)cc2)cc1` (centres unmarked) [Compound 1-45, 2-(4′-fluorobiphenyl-4-yl)-N-hydroxy-2-phenylacetamide], for which the IC50 is less than 1000 nM.

In turn, `CC(COc1ccc(C(C(=O)NO)c2ccccc2)cc1)CN(C)C` (centres unmarked) [Compound 3-18, 2-(4-(3-(dimethylamino)-2-methylpropoxy)phenyl)-N-hydroxy-2-phenylacetamide] registered an IC50 of 1000 to 15000 nM.
